Usually Ki stands for the equilibrium dissociation constant of an inhibitor or competing ligand from its target. A low value points to higher affinity.

Counter-ions that a name gives are not always drawn.

The target in the assay is α7-nAChR (Rattus norvegicus (Rat), UniProt Q05941). Nature of the assay: Affinity for α7-nAChR by inhibition of [3H]-methyllycaconitine binding to rat brain membranes. Particulars: rat brain membranes (P2 fraction), Ki=IC50/(1+L/KD). As for the experimental part: 1. Determination of the Affinity of Test Substances for α7-nAChR by Inhibition of [^3H]-methyllycaconitine Binding to Rat Brain Membranes
Sequence of α7-nAChR (Q05941 23-502 limits assumed): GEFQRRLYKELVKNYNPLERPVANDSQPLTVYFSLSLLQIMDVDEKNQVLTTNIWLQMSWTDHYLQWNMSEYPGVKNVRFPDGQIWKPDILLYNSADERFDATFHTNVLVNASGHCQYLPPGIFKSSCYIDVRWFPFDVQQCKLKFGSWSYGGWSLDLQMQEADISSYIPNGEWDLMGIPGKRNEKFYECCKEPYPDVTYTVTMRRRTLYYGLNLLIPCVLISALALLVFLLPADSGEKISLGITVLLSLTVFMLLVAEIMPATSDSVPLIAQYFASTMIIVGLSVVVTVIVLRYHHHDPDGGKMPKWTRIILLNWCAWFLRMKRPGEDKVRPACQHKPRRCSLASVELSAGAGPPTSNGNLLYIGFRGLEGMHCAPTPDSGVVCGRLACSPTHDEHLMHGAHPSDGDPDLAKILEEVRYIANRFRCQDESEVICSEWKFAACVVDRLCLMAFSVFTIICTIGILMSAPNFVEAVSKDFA
The [^3H]-methyllycaconitine binding assay is a modification of the method described by Davies et al. in Neuropharmacol.
Rat brain tissue (hippocampus or whole brain) is homogenized in homogenization buffer (10% w/v, 0.32 M sucrose, 1 mM EDTA, 0.1 mM phenylmethylsulfonyl fluoride (PMSF), 0.01% (w/v) NaN3, pH 7.4, 4° C.) at 600 rpm in a glass homogenizer. The homogenate is centrifuged (1000×g, 4° C., 10 min) and the supernatant is removed. The pellet is resuspended (20% w/v) and the suspension is centrifuged (1000×g, 4° C., 10 min). The two supernatants are combined and centrifuged (15 000×g, 4° C., 30 min). The pellet obtained in this way is referred to as the P2 fraction.
The P2 pellet is washed with binding buffer (50 mM Tris-HCl, 1 mM MgCl2, 120 mM NaCl, 5 mM KCl, 2 mM CaCl2, pH 7.4), and centrifuged (15 000×g, 4° C., 30 min), twice.
The P2 membranes are resuspended in binding buffer and incubated in a volume of 250 μl (amount of membrane protein 0.1-0.5 mg) in the presence of 1-5 nM [^3H]-methyllycaconitine, 0.1% (w/v) BSA (bovine serum albumin) and various concentrations of the test substance at 21° C. for 2.5 h. Incubation is then carried out in the presence of 1 μM α-bungarotoxin or 100 μM nicotine or 10 μM MLA (methyllycaconitine) to determine the non-specific binding.
The incubation is stopped by adding 4 ml PBS (20 mM Na2HPO4, 5 mM KH2PO4, 150 mM NaCl, pH 7.4, 4° C.) and filtering through type A/E glass fibre filters (Gelman Sciences) which have previously been placed in 0.3% (v/v) polyethyleneimine (PEI) for 3 h. The filters are washed twice with 4 ml of PBS (4° C.), and the bound radioactivity is determined by scintillation measurement. All the assays are carried out in triplicate.
In turn, `COc1cccc2cc(C(=O)N[C@H]3CN4CCC3CC4)oc12` [Example 19, N-[(3R)-1-Azabicyclo[2.2.2]oct-3-yl]-7-methoxy-1-benzofuran-2-carboxamide hydrochloride] had a Ki of 42 nM.

Compound `Nc1ccc2cc(C(=O)N[C@H]3CN4CCC3CC4)oc2c1` [Example 35, N-[(3R)-1-Azabicyclo[2.2.2]oct-3-yl]-6-amino-1-benzofuran-2-carboxamide] yielded a Ki of 3.7 nM.

Turning to `O=C(N[C@H]1CN2CCC1CC2)c1cc2cccc([N+](=O)[O-])c2o1` [Example 36, N-[(3R)-1-Azabicyclo[2.2.2]oct-3-yl]-7-nitro-1-benzofuran-2-carboxamide], affinity was put at a Ki of 63 nM.

In turn, `Nc1cccc2cc(C(=O)N[C@H]3CN4CCC3CC4)oc12` [Example 37, N-[(3R)-1-Azabicyclo[2.2.2]oct-3-yl]-7-amino-1-benzofuran-2-carboxamide] displayed a Ki of 80 nM.

For the compound `O=C(N[C@H]1CN2CCC1CC2)c1cc2cc(F)ccc2o1` [Example 42, N-[(3R)-1-Azabicyclo[2.2.2]oct-3-yl]-5-fluoro-1-benzofuran-2-carboxamide hydrochloride], affinity was put at a Ki of 37 nM.

`O=C(N[C@H]1CN2CCC1CC2)c1cc2cccc(Br)c2o1` [Example 46, N-[(3R)-1-Azabicyclo[2.2.2]oct-3-yl]-7-bromo-1-benzofuran-2-carboxamide] displayed an inhibition constant Ki of 58 nM.

As to `O=C(N[C@H]1CN2CCC1CC2)c1cc2ccc3ccccc3c2o1` [Example 48, N-[(3R)-1-Azabicyclo[2.2.2]oct-3-yl]naphtho[1,2-b]furan-2-carboxamide hydrochloride], the affinity corresponds to a Ki of 75 nM.

Compound `O=C(N[C@@H]1CN2CCC1CC2)c1cc2cccc(F)c2s1` [Example 59, N-[(3S)-1-Azabicyclo[2.2.2]oct-3-yl]-7-fluoro-1-benzothiophene-2-carboxamide hydrochloride] yielded a Ki of 20 nM.

In turn, `Nc1ccc2sc(C(=O)N[C@H]3CN4CCC3CC4)cc2c1` [Example 62, N-[(3R)-1-Azabicyclo[2.2.2]oct-3-yl]-5-amino-1-benzothiophene-2-carboxamide dihydrochloride] came in with a Ki of 50 nM.

Consider `O=C(N[C@H]1CN2CCC1CC2)c1cc2cccc(C(F)(F)F)c2s1` [Example 64, N-[(3R)-1-Azabicyclo[2.2.2]oct-3-yl]-7-trifluoromethyl-1-benzothiophene-2-carboxamide hydrochloride], for which the Ki worked out at 20 nM.

The compound `O=C(N[C@@H]1CN2CCC1CC2)c1cc2cccc(C(F)(F)F)c2s1` [Example 65, N-[(3S)-1-Azabicyclo[2.2.2]oct-3-yl]-7-trifluoromethyl-1-benzothiophene-2-carboxamide hydrochloride] returned a Ki of 55 nM.

`Nc1cccc2cc(C(=O)N[C@H]3CN4CCC3CC4)sc12` [Example 68, N-[(3R)-1-Azabicyclo[2.2.2]oct-3-yl]-7-amino-1-benzothiophene-2-carboxamide dihydrochloride] came in with a Ki of 2 nM.

Compound `Nc1ccc2cc(C(=O)N[C@H]3CN4CCC3CC4)sc2c1` [Example 73, 6-Amino-N-[(3R)-1-azabicyclo[2.2.2]oct-3-yl]-1-benzothiophene-2-carboxamide dihydrochloride] yielded a Ki of 2.8 nM.

For the compound `O=C(N[C@H]1CN2CCC1CC2)c1cc2cc(F)ccc2s1` [Example 74, N-[(3R)-1-Azabicyclo[2.2.2]oct-3-yl]-5-fluoro-1-benzothiophene-2-carboxamide hydrochloride], the affinity, expressed as Ki, was 22 nM.

Regarding `COc1cccc2cc(C(=O)N[C@H]3CN4CCC3CC4)sc12` [Example 76, N-[(3R)-1-Azabicyclo[2.2.2]oct-3-yl]-7-methoxy-1-benzothiophene-2-carboxamide hydrochloride], the Ki turned out to be 6.7 nM.

The compound `COc1cccc2cc(C(=O)N[C@@H]3CN4CCC3CC4)sc12` [Example 77, N-[(3S)-1-Azabicyclo[2.2.2]oct-3-yl]-7-methoxy-1-benzothiophene-2-carboxamide hydrochloride] had a Ki of 20 nM.

As to `O=C(N[C@H]1CN2CCC1CC2)c1cc2c(F)cccc2s1` [Example 78, N-[(3R)-1-Azabicyclo[2.2.2]oct-3-yl]-4-fluoro-1-benzothiophene-2-carboxamide hydrochloride], the inhibition constant Ki was found to be 80 nM.

As for `O=C(N[C@H]1CN2CCC1CC2)c1cc2cc(F)cc(F)c2s1` [Example 80, N-[(3R)-1-Azabicyclo[2.2.2]oct-3-yl]-5,7-difluoro-1-benzothiophene-2-carboxamide hydrochloride], the affinity corresponds to a Ki of 31 nM.

As for `CC(=O)Nc1ccc2cc(C(=O)N[C@H]3CN4CCC3CC4)sc2c1` [Example 88, 6-(Acetylamino)-N-[(3R)-1-azabicyclo[2.2.2]oct-3-yl]-1-benzothiophene-2-carboxamide hydrochloride], the inhibition constant Ki stood at 28 nM.
